# From article PMC7536072, “Molecular and functional characterization of somatostatin-type signalling in a deuterostome invertebrate” (Open Biology, 2020)
# Assays:
# [1] = tested on: cardiac stomach preparations from A. rubens; experiment: in vitro relaxation of cardiac stomach preparations; design: species or system Asterias rubens; settings: 10^−6 M; KCl-contracted; mean, n = 6
# Protocol: Synthetic ArSS2 ([…], with a disulfide bridge between the cysteine residues) was custom synthesized (Peptide Protein Research Ltd, Fareham, UK) to enable testing of its pharmacological effects on in vitro preparations of organs/muscles from A. rubens. ArSS2 was tested for its in vitro effects on the contractility of tube foot, apical muscle and cardiac stomach preparations from at least six different specimens of A. rubens. Individual tube foot preparations were dissected from starfish arms with their corresponding ampulla intact. Then cotton ligatures were tied around the ambulacral body wall and the tube foot disc and then the external epithelium of the tube foot was scraped off using a blunt scalpel blade to facilitate penetration of peptides when tested in vitro, as described previously. Apical muscle preparations were dissected from the aboral body wall with approximately 1 cm strips of apical muscle tied at each end with cotton ligatures. Cardiac stomach preparations were dissected as described previously and then were tied at the aboral side of the cardiac stomach and around the oesophagus with cotton ligatures. The dissected preparations were tied to a fixed metal hook orally and to a high-grade isotonic transducer (MLT0015; ADInstruments Ltd; Oxford, UK) aborally, suspended in a 20 ml aerated organ bath containing artificial seawater at approximately 11°C. The transducer was connected via a bridge amplifier (FE221 Bridge Amp, ADInstruments Ltd, Oxford, UK) to data acquisition hardware (PowerLab 2/36, ADInstruments Ltd, Oxford, UK). Data collected from PowerLab were visualized as traces and analysed using LabChart (v. 8.0.7) software installed on a laptop computer (Lenovo E540, Windows 7 Professional).
# To examine the effects of ArSS2 on tube foot and cardiac stomach preparations, 10^−6 M acetylcholine (ACh) or artificial seawater (ASW) containing 30 mM added KCl was used to induce contraction of these preparations, respectively. Once a stable baseline contracted state was achieved, synthetic ArSS2 was added into the organ bath to sequentially achieve final concentrations in the range of 10^−10 to 10^−6 M. For these experiments, the contracting effect of 10^−6 M ACh or ASW containing 30 mM added KCl was defined as 100% and the relaxing effects of ArSS2 were then calculated as a percentage reversal of the 100% contracted state.
# Experiments were performed where the effects of ArSS2, S2 and asterotocin (at 10^−7 and 10^−6 M) on cardiac stomach preparations (n = 6) were compared. For these experiments, the effect of 10^−7 or 10^−6 M S2 was defined as 100% and the effect of asterotocin or ArSS2 was calculated as a % of the effect of S2. To determine if there were significant differences in magnitude of the relaxing effects of the three peptides on cardiac stomach preparations, data were analysed statistically using a two-tailed Student's t-test in Prism 6.
# [2] = tested on: cardiac stomach preparations from A. rubens; settings: cited from earlier work
# From the text: Likewise, ArSS2 caused dose-dependent relaxation of cardiac stomach preparations at concentrations between ... || ArSS2 is widely expressed in the digestive system of A. rubens, including the peristomial membrane, cardiac stomach, pyloric stomach, pyloric duct, and pyloric caeca. In the cardiac stomach, ArSSP2 transcripts are detected in cells located in the mucosa layer and ArSS2-immunoreactivity is present in the adjacent basi-epithelial nerve plexus. Consistent with this expression of ArSS2 in the cardiac stomach, ArSS2 causes dose-dependent relaxation of cardiac stomach preparations.
# [3] = tested on: cardiac stomach of A. rubens; settings: injected in vivo; ref [66],[67]; cited from earlier work
# From the text: When starfish (A. rubens) feed, the cardiac stomach is relaxed and everted out of the mouth over the digestible soft tissues of prey (e.g. mussels). […] Therefore, because ArSS2 causes relaxation of cardiac stomach preparations in vitro, we investigated if ArSS2 also triggers cardiac stomach eversion when injected in vivo. Firstly, 15 medium-sized starfish were starved for one week to norm ... || Asterias rubens feeds by everting its cardiac stomach through a narrow oral opening (mouth) and over the digestible parts of its prey, and for this to be accomplished, the cardiac stomach must be in a relaxed state. Neuropeptides that cause cardiac stomach in vitro are therefore potential mediators of cardiac stomach eversion in vivo. […] Therefore, here we investigated if ArSS2 also triggers cardiac stomach ever ... || The in vitro relaxing effect of ArSS2 on the cardiac stomach of A. rubens is of interest from a physiological/behavioural perspective because relaxation of the cardiac stomach is required for the extraoral feeding behaviour of starfish where it is everted out of the mouth and over the digestible soft tissue of prey such as mussels.
substance,measurement,setting,value
"SGPYSFNSGLTF-NH2 [S2, SALMFamide neuropeptide S2 (…-NH2)]",magnitude of cardiac stomach relaxing action relative to asterotocin,[1],approximately 50 % of the effect of asterotocin
same,cardiac stomach relaxant activity,"[2]; ref [64],[67]",act as cardiac stomach relaxants
same,relaxation of tube foot and/or cardiac stomach preparations,"[2]; tube foot and/or cardiac stomach, ref [64],[66]",cause relaxation of tube foot and/or cardiac stomach preparations
same,cardiac stomach eversion,[3],induce cardiac stomach eversion when injected in vivo
